Here are results for six compounds from paper PMC9377253, “Antiproliferative and cytotoxic effects of sesquiterpene lactones isolated from Ambrosia artemisiifolia on human adenocarcinoma and normal cell lines” (Pharmaceutical Biology, 2022).

One series has as its system MCF-7 mp53 cells. More on the design: method as in Sturgeon et al. [2005]. Conditions: ref Sturgeon et al. [2005]; cited from earlier work.
A short description of series [1]: MTT cytotoxicity assay (24 h), MRC-5. The series is classed as cell-based. Conditions: human, MRC-5 embryonal lung fibroblast cells, 24 h incubation. The procedure:
(§1) MRC-5 human embryonal lung fibroblast cell lines (ATCC CCL-171) were purchased from LGC Promochem, Teddington, UK. The cell line was cultured in Eagle’s Minimal Essential Medium (EMEM, containing 4.5 g/L glucose) supplemented with a non-essential amino acid mixture, a selection of vitamins and 10% heat-inactivated foetal bovine serum. The cell lines were incubated at 37 °C, in a 5% CO2, 95% air atmosphere.
(§2) MRC-5 non-cancerous human embryonic lung fibroblast and human colonic adenocarcinoma cell lines (doxorubicin-sensitive Colo 205 and multidrug-resistant Colo 320 colonic adenocarcinoma cells) were used to determine the effect of compounds on cell proliferation and growth. The effects of increasing concentrations of compounds on cell proliferation and growth were tested in 96-well flat-bottomed microtitre plates. The compounds were diluted in a volume of 100 μL of medium.
(§3) The adherent human embryonal lung fibroblast cells were seeded overnight and cultured in 96-well flat-bottomed microtitre plates prior to the assay, using EMEM supplemented with 10% heat-inactivated foetal bovine serum. The density of the cells was adjusted to 6 × 10^3 cells (antiproliferative assay) or 1 × 10^4 cells (cytotoxicity assay) in 100 μL per well, the cells were seeded for 24 h at 37 °C, 5% CO2, then the medium was removed from the plates containing the cells, and the dilutions of compounds (200 µL) previously made in a separate plate were added to the cells in.
(§4) The culture plates were incubated at 37 °C for 72 h (antiproliferative test) or 24 h (cytotoxicity test); at the end of the incubation period, 20 μL of MTT (thiazolyl blue tetrazolium bromide, Sigma, St. Louis, MO, USA) solution (from a stock solution of 5 mg/mL) were added to each well. After incubation at 37 °C for 4 h, 100 μL of sodium dodecyl sulphate (SDS) (Sigma) solution (10% in 0.01 M HCI) were added to each well and the plates were further incubated at 37 °C overnight. Cell growth was determined by measuring the optical density (OD) at 540/630 nm with Multiscan EX ELISA reader (Thermo Labsystems, Cheshire, WA, USA). Inhibition of the cell growth was determined according to the formula below: Inhibition %=100−[OD sample−OD medium control/OD cell control−OD medium control]×100
(§5) Results are expressed in terms of IC50, defined as the inhibitory dose that reduces the growth of the cells exposed to the tested compounds by 50%.
On the technique in general: Tetrazolium assays rely on reduction of a dye to a coloured formazan, in cell work by metabolically active cells.

The subject of series [2] is multidrug-resistant Colo 320 colonic adenocarcinoma cells. In words: MTT antiproliferative assay (72 h), Colo 320. Conditions: for IC50: MTT, 72 h incubation, read-out: Antiproliferative IC50, Colo320. The series is classed as cell-based, human. As for the experimental part: (§6) Human colonic adenocarcinoma cell lines (Colo 205 doxorubicin-sensitive and Colo 320/MDR-LRP multidrug-resistant expressing ABCB1 (MDR1)-LRP), ATCC-CCL-220.1 (Colo 320) and CCL-222 (Colo 205) were purchased from LGC Promochem, Teddington, UK. The cells were cultured in RPMI 1640 medium supplemented with 10% heat-inactivated foetal bovine serum, 2 mM L-glutamine, 1 mM Na-pyruvate and 100 mM Hepes. The cell lines were incubated at 37 °C, in a 5% CO2, 95% air atmosphere. The semi-adherent human colon cancer cells were detached with Trypsin-Versene (EDTA) solution for 5 min at 37 °C.
as §2
(§7) In case of the colonic adenocarcinoma cells, the 2-fold serial dilutions of compounds were prepared in 100 μL of RPMI 1640, horizontally. The semi-adherent colonic adenocarcinoma cells were treated with Trypsin-Versene (EDTA) solution. The density of the cells was adjusted to 6 × 10^3 cells (antiproliferative assay) or 1 × 10^4 cells (cytotoxicity assay) in 100 μL of RPMI 1640 medium, and was added to each well, with the exception of the medium control wells. The final volume of the wells containing compounds and cells was 200 μL.
as §4, §5

The subject of series [3] is multidrug-resistant Colo 320 colonic adenocarcinoma cells expressing the ABCB1 transporter. The series can be described thus: Checkerboard combination assay with doxorubicin. The series is classed as cell-based, human. The procedure:
A checkerboard microplate method was applied to study the effect of drug interactions between the compounds and doxorubicin. The assay was carried out using multidrug-resistant Colo 320 colonic adenocarcinoma cells expressing the ABCB1 transporter. The final concentration of the chemotherapeutic agent doxorubicin used in the combination experiment was chosen in accordance with their antiproliferative activity previously determined. The dilutions of the chemotherapeutic drug were made in a horizontal direction in 100 μL, and the dilutions of the compounds vertically in the microtitre plate in 50 μL volume. The cells were re-suspended in culture medium and distributed into each well in 50 μL containing 6 × 10^3 cells each. The plates were incubated for 72 h at 37 °C in 5% CO2 atmosphere. The cell growth rate was determined after MTT staining. At the end of the incubation period, 20 μL of MTT (thiazolyl blue tetrazolium bromide, Sigma) solution (from a stock solution of 5 mg/mL) was added to each well. After incubation at 37 °C for 4 h, 100 μL of SDS (Sigma-Aldrich, St. Louis, MO, USA) solution (10% in 0.01 M HCl; Merck, Darmstadt, Germany) were added to each well and the plates were further incubated at 37 °C overnight. OD was measured at 540/630 nm with Multiscan EX ELISA reader (Thermo Labsystems, Cheshire, WA). Combination index (CI) values at 50% of the growth inhibition dose (ED50), were determined using CompuSyn software (ComboSyn, Inc., Paramus, NJ) to plot four to five data points to each ratio.

Series [4] deals with doxorubicin-sensitive Colo 205 colonic adenocarcinoma cells. The series can be described thus: MTT cytotoxicity assay (24 h), Colo 205. The series is classed as cell-based, human. Conditions: Homo sapiens, COLO 205; MTT, 24 h incubation; read-out: Cytotoxicity IC50, Colo205. The procedure:
as §6, §2, §7, §4, §5

For series [5] the test system is unchanged. The series can be described thus: MTT antiproliferative assay (72 h), Colo 205. Conditions: Homo sapiens, COLO 205, 72 h incubation, read-out: Antiproliferative IC50, Colo205. The class given is cell-based, human. As for the experimental part:
as §6, §2, §7, §4, §5

For series [6], the system named is multidrug-resistant Colo 320 colonic adenocarcinoma cells. The series can be described thus: MTT cytotoxicity assay (24 h), Colo 320. The series is classed as cell-based. To be noted: Homo sapiens, COLO 320, 24 h, 24 h incubation, read-out: Cytotoxicity IC50, Colo320. As for the experimental part: as §6, §2, §7, §4, §5
The subject of series [7] is MRC-5 human embryonal lung fibroblast cell line. In words: MTT antiproliferative assay (72 h), MRC-5. The class given is cell-based. Conditions: Homo sapiens, MRC5, 72 h incubation. The procedure: as §1, §2, §3, §4, §5
Series [8] is described as follows: MTT cytotoxicity assay (24 h), Colo 205. To be noted: human colonic adenocarcinoma cell lines versus MRC-5, cytotoxicity; read-out: selectivity index [SI], cytotoxicity. The series is classed as cell-based, human. The procedure: as §6, §2, §7, §4, §5
Series [9] has as its system Staphylococcus aureus ATCC 25923. The series can be described thus: Real-time ethidium bromide accumulation assay, S. aureus ATCC 25923. The series is classed as cell-based. Conditions: EB accumulation, 60 min, positive control at 25 μM.
Experimental: (§8) The impact of compounds on EB accumulation was determined by the automated EB method using a CLARIOstar Plus plate reader (BMG Labtech, Aylesbury, UK). First, the bacterial strain was incubated until it reached an OD of 0.6 at 600 nm [Escherichia coli AG100 is incubated in Luria–Bertani (LB) broth and Staphylococcus aureus ATCC 25923 is incubated in tryptic soy broth (TSB)]. The culture was washed with PBS (pH 7.4) and centrifuged at 13,000 × g for 3 min, the cell pellet was re-suspended in PBS. The compounds were added at ½ MIC concentration (in case of >100 the concentration is 100 µM) to PBS containing a non-toxic concentration of EB (2 µg/mL). […] Then, the plates were placed into the CLARIOstar plate reader, and the fluorescence was monitored at excitation and emission wavelengths of 525 and 615 nm every minute for 1 h on a real-time basis. From the real-time data, the activity of the compounds, namely the relative fluorescence index (RFI) of the last time point (60 min) of the EB accumulation assay, was calculated according to the following formula: RFI=(RFtreated – RFuntreated)/RFuntreated where RFtreated is the relative fluorescence (RF) at the last time point of EB retention curve in the presence of an inhibitor, and RFuntreated is the RF at the last time point of the EB retention curve of the untreated control having the solvent control (DMSO). […]
Series [10] deals with T1, ABCB1 efflux pump (P-glycoprotein) (Homo sapiens, UniProt P08183).
T1 construct: The colonic adenocarcinoma cells (the doxorubicin-sensitive Colo 205 and the multidrug-resistant Colo 320); CCL-222 (Colo 205); host or cells: Colo 320/MDR-LRP (multidrug-resistant, overexpressing ABCB1) and Colo 205 (sensitive) human colon adenocarcinoma cells
T1 sequence (P08183 whole entry): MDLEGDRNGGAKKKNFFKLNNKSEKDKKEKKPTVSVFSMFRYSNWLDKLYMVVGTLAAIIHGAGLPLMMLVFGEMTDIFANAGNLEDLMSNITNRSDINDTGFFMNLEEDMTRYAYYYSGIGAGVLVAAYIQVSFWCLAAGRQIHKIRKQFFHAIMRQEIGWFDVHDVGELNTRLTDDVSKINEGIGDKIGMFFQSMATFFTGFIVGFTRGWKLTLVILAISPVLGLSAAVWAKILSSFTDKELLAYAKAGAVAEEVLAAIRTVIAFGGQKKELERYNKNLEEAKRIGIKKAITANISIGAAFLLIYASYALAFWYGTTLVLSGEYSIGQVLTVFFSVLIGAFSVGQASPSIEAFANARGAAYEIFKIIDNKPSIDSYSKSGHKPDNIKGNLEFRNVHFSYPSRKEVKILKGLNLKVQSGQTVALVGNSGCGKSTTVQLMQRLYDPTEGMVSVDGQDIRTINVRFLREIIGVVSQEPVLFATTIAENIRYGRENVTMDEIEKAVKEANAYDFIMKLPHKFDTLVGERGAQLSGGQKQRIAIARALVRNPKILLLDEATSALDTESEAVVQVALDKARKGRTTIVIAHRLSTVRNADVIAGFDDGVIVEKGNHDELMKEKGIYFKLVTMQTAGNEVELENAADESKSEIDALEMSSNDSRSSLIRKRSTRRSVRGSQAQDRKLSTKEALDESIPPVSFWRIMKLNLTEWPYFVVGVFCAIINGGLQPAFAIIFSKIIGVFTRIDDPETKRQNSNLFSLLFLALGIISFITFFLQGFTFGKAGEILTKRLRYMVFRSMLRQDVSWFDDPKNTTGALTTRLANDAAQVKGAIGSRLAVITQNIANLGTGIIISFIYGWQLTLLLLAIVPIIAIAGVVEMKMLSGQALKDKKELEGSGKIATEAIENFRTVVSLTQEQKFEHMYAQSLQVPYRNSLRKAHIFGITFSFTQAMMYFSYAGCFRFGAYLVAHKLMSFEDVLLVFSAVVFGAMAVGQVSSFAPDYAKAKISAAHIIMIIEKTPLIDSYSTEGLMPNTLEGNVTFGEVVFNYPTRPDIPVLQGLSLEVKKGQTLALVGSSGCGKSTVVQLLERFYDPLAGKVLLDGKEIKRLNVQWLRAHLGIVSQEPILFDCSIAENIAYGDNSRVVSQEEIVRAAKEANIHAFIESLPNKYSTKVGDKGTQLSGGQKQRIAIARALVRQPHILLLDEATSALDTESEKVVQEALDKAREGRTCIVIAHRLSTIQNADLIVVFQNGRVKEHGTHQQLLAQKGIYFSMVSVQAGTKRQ
In words: Rhodamine 123 retention by flow cytometry (ABCB1 inhibition). The class given is cell-based. Conditions: rhodamine 123, Colo 320 vs Colo 205, at 0.2 µM. A general note: A flow cytometer gives signals particle by particle.
Experimental: This method is a fluorescence-based detection system which uses tariquidar as a reference inhibitor of the ABCB1 efflux pump (EP). The colonic adenocarcinoma cells (the doxorubicin-sensitive Colo 205 and the multidrug-resistant Colo 320) were adjusted to a density of 2 × 10^6/mL, re-suspended in serum-free RPMI 1640 medium and distributed in 0.5 mL aliquots into Eppendorf centrifuge tubes. The compounds were added at different concentrations (2 μM and 20 μM final concentrations, respectively), and the samples were incubated for 10 min at room temperature. […] The fluorescence intensity of the cell population was measured with a Partec CyFlow flow cytometer (Partec, Munster, Germany). […] The mean fluorescence intensity (%) was calculated for the treated MDR Colo 320 and sensitive Colo 205 cell lines as compared to the untreated cells. The fluorescence activity ratio (FAR) was calculated based on the following equation which relates the measured fluorescence values: FAR=Colo 320treated/Colo 320control/Colo 205treated/Colo 205control
The fluorescence dye, rhodamine 123 was used as a marker of the ABCB1 transporter activity to explore the potential inhibitory activity of the isolated compounds. Inside cells without overexpressing the P-glycoprotein, the rhodamine 123 accumulates and resulting in an increase in fluorescence intensity (λex = 490/λem = 525 nm). […]

Another series has as its system Escherichia coli AG100. Conditions: EB accumulation, 60 min, positive control at 50 μM.

Experimental for Escherichia coli AG100: as §8

As a reminder, the IC50 is the midpoint of a concentration-inhibition curve. Take `C=C1C(=O)O[C@@H]2[C@H]1CC[C@H](C)[C@@H]1CCC(=O)O[C@@]21C` [Compound 1, psilostachyin C]: in the series with MCF-7 mp53 cells, the “effect on mitosis of MCF-7 mp53 cells (G2 checkpoint inhibitors)” value is recorded as “blocked MCF-7 mp53 cells in mitosis”. For the same compound, the 50% inhibitory concentration (IC50) at 24 h in series [1] was 52.7 ± 2.62 µM. Further, the half-maximal inhibitory concentration (IC50) turned out to be 14.7 ± 0.82 µM in series [2] (Homo sapiens, COLO 320, 72 h); 26.6 ± 0.48 µM in series [4]; 15.6 ± 0.83 µM in series [5]; 28.71 ± 0.11 µM in [6]; 35.1 ± 4.03 µM in series [7]. Moreover, the Type of interaction entry is “Strong antagonism” in series [3] (starting concentration 50 µM, ratio 11.6:1); “Antagonism” in series [3] (starting concentration 50 µM, ratio 23.2:1); “Slight antagonism” in [3] (starting concentration 50 µM, ratio 46.4:1); “Antagonism” in [3] (starting concentration 50 µM, ratio 92.8:1); “Moderate antagonism” in series [3] (starting concentration 50 µM, ratio 185:1); “Strong antagonism” in [3] (starting concentration 50 µM, ratio compound:doxorubicin 5.8:1).
In the case of `CC(=O)O[C@@H]1C[C@H]2[C@@H](C)CC[C@@H]3[C@@H](OC(=O)[C@@H]3C)[C@]2(C)C1=O` [Compound 2, acetoxydihydrodamsin], the half-maximal inhibitory concentration (IC50) at 24 h in [1] was 23.8 ± 1.06 µM. In addition, the IC50 is 3.67 ± 0.35 µM in series [2] (Homo sapiens, COLO 320, 72 h); 7.64 ± 0.37 µM in [4]; 5.14 ± 0.55 µM in [5]; 10.8 ± 0.22 µM in series [6]; 11 ± 0.31 µM in series [7]. The Type of interaction result in series [3] (starting concentration 15 µM, ratio 1.74:1) was “Antagonism”; in series [3] (starting concentration 15 µM, ratio 3.48:1) it was “Antagonism”; in [3] (starting concentration 15 µM, ratio 6.96:1), “Antagonism”; in series [3] (starting concentration 15 µM, ratio 13.92.1), “Antagonism”; in series [3] (starting concentration 15 µM, ratio 27.84:1), “Moderate antagonism”; in [3] (starting concentration 15 µM, ratio 55.68:1) it was “Moderate antagonism”. Further, the selectivity ratio at 24 h in series [8] was 3.11.
Consider `C=C1C(=O)O[C@@H]2[C@H]1CC[C@H](C)[C@]1(CCC(=O)O1)[C@@]2(C)O` [Compound 4, psilostachyin], for which the “effect on mitosis of MCF-7 mp53 cells (G2 checkpoint inhibitors)” value in the series on MCF-7 mp53 cells is “blocked MCF-7 mp53 cells in mitosis”. In [1], this compound showed an IC50 at 24 h of 41.8 ± 2.43 µM. The “selectivity index (SI), antiproliferative” value in [2] (Colo320 versus MRC-5, cell proliferation inhibition) stood at 3.04. Also, the half-inhibitory concentration (IC50) in series [2] (Homo sapiens, COLO 320, 72 h) stood at 5.29 µM; in series [2], 8.78 ± 0.22 µM; in series [4], 42.4 ± 2.37 µM; in series [5], 14.4 ± 1 µM; in series [7] it was 26.7 ± 0.51 µM. Besides, the Type of interaction entry in series [3] (starting concentration 25 µM, ratio 2.9:1) was “Additive effect”; in [3] (starting concentration 25 µM, ratio 5.8:1), “Moderate antagonism”; in series [3] (starting concentration 25 µM, ratio 11.6:1), “Synergism”; in series [3] (starting concentration 25 µM, ratio 23.2:1), “Antagonism”; in series [3] (starting concentration 25 µM, ratio 46.4:1), “Moderate antagonism”; in series [3] (starting concentration 25 µM, ratio 92.2:1), “Slight antagonism”.
As for `COC(=O)[C@H]1[C@H]2C[C@@H]3c4[nH]c5cc(OC)ccc5c4CCN3C[C@H]2C[C@@H](OC(=O)c2cc(OC)c(OC)c(OC)c2)[C@@H]1OC` [reserpine], the “RFI (relative fluorescence index)” value in series [9] turned out to be 2.77.
Consider `COc1cc2c(cc1OC)CN(CCc1ccc(NC(=O)c3cc(OC)c(OC)cc3NC(=O)c3cnc4ccccc4c3)cc1)CC2` [tariquidar], for which, in series [10], the “FAR value (fluorescence activity ratio)” value is listed as 6.6.
In the case of “carbonyl cyanide m-chlorophenylhydrazine [CCCP]”, the “RFI (relative fluorescence index)” value in the series on Escherichia coli AG100 came to 1.34.
